One block for each compound: values may come before it.
Experiments:
[1] = target: Cyclin-dependent kinase 7 (Homo sapiens, UniProt P50613); conditions: at 10 µM
[2] = target: Dual specificity protein kinase CLK3 (Homo sapiens, UniProt P49761); conditions: at 10 µM
[3] = target: BDNF/NT-3 growth factors receptor (Homo sapiens) (UniProt Q16620); assay: Selectivity interaction (KinomeScan (DiscoverX)) EUB0001079a NTRK2; conditions: at 1 µM
[4] = target: T1, Serine/threonine-protein kinase BRSK1 (Homo sapiens) (UniProt Q8TDC3); assay: Selectivity interaction (KinomeScan (DiscoverX)) EUB0000618a BRSK1; conditions: at 10 µM
T1 sequence (whole entry): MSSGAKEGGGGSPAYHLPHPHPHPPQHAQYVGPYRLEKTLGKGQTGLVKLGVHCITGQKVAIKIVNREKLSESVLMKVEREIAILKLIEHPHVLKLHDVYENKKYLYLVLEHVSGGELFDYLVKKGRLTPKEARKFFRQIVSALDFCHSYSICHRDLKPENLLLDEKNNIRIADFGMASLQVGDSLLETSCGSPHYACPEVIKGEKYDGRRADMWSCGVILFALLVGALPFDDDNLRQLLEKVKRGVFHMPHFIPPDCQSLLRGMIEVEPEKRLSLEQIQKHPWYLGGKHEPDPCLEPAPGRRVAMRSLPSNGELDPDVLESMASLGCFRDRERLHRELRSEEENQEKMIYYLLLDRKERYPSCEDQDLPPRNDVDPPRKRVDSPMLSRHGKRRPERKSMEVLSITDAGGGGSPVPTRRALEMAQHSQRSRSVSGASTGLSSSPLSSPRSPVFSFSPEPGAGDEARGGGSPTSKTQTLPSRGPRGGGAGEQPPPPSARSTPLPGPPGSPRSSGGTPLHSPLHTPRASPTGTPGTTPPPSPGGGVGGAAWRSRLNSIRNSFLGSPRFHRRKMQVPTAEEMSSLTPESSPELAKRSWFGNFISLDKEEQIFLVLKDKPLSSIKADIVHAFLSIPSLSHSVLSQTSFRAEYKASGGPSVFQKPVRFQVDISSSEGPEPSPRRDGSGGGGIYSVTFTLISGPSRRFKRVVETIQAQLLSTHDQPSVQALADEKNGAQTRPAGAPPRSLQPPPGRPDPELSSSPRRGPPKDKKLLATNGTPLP

[5] = target: Glycogen synthase kinase-3 beta (Homo sapiens, UniProt P49841); assay: Selectivity interaction (ActivX KiNativ screen (ex vivo kinase selectivity in human PBMCs)) EUB0001619a GSK3B; type: cell-based; conditions: PBMC, at 1 µM
[6] = target: Receptor tyrosine-protein kinase erbB-3 (Homo sapiens) (UniProt P21860); assay: Selectivity interaction (KinomeScan (DiscoverX)) EUB0001619a ERBB3; conditions: at 1 µM
[7] = target: Fibroblast growth factor receptor 3 (Homo sapiens, UniProt P22607); conditions: at 10 µM
[8] = target: T2, Ephrin type-B receptor 1 (Homo sapiens) (UniProt P54762); assay: Selectivity interaction (Kinase panel (Invitrogen)) EUB0000639a EPHB1; conditions: at 200 nM
T2 sequence (whole entry): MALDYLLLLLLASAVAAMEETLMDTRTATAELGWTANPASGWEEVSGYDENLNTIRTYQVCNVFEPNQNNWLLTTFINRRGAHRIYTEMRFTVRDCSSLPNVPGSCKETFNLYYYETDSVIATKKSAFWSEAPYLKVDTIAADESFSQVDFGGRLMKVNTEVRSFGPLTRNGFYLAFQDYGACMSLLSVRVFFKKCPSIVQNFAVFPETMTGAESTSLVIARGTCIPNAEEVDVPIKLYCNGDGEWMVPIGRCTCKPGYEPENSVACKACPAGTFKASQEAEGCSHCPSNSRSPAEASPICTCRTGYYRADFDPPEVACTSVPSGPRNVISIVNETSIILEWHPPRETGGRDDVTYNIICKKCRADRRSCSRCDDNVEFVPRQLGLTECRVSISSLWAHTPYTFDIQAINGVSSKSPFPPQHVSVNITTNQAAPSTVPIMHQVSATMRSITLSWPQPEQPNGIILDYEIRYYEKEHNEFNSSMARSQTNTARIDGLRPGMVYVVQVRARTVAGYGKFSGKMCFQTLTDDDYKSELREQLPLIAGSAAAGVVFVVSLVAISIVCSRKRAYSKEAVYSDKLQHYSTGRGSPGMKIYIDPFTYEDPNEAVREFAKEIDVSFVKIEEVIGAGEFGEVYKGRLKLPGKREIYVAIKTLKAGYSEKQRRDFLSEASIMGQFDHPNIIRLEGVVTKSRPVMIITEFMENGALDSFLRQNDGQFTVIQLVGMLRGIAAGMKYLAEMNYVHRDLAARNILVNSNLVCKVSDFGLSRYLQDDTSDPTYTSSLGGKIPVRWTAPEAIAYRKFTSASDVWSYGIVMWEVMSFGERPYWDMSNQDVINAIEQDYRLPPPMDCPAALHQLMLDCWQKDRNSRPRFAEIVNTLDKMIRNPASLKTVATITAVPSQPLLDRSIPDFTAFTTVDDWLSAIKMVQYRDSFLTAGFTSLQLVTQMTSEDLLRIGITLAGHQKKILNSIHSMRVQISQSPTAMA

[9] = target: Receptor-interacting serine/threonine-protein kinase 2 (Homo sapiens, UniProt O43353); assay: Selectivity interaction (Kinase panel (Invitrogen)) EUB0000639a RIPK2; conditions: at 200 nM
[10] = target: Phosphatidylinositol 4-kinase beta (Homo sapiens, UniProt Q9UBF8); assay: Selectivity interaction (ActivX KiNativ screen (kinase selectivity in THP-1 cell lysates)) EUB0000639a PI4KB; type: subcellular; conditions: lysate, at 0.2 µM
[11] = target: 5'-AMP-activated protein kinase catalytic subunit alpha-1 (Homo sapiens, UniProt Q13131); assay: Selectivity interaction (ActivX KiNativ screen (kinase selectivity in THP-1 cell lysates)) EUB0000639a PRKAA1; type: subcellular; conditions: lysate, at 1 µM
[12] = target: Tyrosine-protein kinase Yes (Homo sapiens) (UniProt P07947); assay: Selectivity interaction (ProQinase) EUB0000171b YES1
[13] = test system: Serine/threonine-protein kinase B-raf (Homo sapiens), P15056 [V600E]; assay: (§1) Selectivity interaction (KinomeScan (DiscoverX)) EUB0001049a BRAF; conditions: at 1 µM
[14] = target: Serine/threonine-protein kinase B-raf (Homo sapiens) (UniProt P15056); assay: as §1; conditions: at 1 µM
[15] = target: Serine/threonine-protein kinase N2 (Homo sapiens, UniProt Q16513); assay: Selectivity interaction (Kinase panel (33PanQinase(R) Activity Assay)) EUB0000877a PKN2
[16] = target: Myosin light chain kinase, smooth muscle (Homo sapiens, UniProt Q15746); assay: Selectivity interaction (KinomeScan (DiscoverX)) EUB0000092b MYLK; conditions: at 10 µM
[17] = target: Serine/threonine-protein kinase PAK 6 (Homo sapiens) (UniProt Q9NQU5); assay: Selectivity interaction (KinomeScan (DiscoverX)) EUB0000695a PAK6; conditions: at 100 nM

Sequence of Tyrosine-protein kinase Yes (Homo sapiens) (P07947 2-543 limits assumed): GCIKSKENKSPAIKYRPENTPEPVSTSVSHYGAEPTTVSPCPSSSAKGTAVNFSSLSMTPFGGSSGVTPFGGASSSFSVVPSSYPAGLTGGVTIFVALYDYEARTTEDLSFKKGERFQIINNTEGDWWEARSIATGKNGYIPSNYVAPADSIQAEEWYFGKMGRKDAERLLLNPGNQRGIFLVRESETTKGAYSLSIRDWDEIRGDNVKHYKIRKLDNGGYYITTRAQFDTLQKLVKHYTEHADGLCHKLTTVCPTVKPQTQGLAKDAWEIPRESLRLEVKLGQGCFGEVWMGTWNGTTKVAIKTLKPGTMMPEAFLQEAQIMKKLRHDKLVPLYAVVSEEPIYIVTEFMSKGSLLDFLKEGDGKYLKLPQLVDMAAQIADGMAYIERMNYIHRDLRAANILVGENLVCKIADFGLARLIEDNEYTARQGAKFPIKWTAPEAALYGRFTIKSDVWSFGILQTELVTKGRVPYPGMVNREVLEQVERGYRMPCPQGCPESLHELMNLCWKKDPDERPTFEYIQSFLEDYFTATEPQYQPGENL
Sequence of Phosphatidylinositol 4-kinase beta (Q9UBF8 2-816 limits assumed): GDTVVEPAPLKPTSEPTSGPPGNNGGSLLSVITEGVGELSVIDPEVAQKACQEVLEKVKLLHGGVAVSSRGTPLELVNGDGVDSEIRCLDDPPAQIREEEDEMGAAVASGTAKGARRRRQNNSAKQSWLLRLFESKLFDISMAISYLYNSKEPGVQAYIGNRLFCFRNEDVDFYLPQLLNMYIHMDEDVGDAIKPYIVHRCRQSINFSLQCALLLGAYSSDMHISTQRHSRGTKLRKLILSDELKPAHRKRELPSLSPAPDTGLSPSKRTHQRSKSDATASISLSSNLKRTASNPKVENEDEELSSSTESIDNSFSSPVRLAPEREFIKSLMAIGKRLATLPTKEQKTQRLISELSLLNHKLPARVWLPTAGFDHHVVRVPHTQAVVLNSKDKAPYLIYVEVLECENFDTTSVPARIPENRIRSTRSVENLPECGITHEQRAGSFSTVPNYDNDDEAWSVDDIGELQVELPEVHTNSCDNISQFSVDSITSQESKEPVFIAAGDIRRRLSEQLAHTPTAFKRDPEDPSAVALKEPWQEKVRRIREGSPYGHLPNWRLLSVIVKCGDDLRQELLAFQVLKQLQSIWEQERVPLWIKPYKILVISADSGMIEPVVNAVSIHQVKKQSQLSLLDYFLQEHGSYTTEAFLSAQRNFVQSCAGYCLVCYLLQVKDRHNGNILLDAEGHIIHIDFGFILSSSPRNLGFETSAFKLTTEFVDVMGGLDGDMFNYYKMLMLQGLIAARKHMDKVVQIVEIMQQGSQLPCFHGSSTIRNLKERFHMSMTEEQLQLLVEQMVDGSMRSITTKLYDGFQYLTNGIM
Sequence of Fibroblast growth factor receptor 3 (P22607 23-806 limits assumed): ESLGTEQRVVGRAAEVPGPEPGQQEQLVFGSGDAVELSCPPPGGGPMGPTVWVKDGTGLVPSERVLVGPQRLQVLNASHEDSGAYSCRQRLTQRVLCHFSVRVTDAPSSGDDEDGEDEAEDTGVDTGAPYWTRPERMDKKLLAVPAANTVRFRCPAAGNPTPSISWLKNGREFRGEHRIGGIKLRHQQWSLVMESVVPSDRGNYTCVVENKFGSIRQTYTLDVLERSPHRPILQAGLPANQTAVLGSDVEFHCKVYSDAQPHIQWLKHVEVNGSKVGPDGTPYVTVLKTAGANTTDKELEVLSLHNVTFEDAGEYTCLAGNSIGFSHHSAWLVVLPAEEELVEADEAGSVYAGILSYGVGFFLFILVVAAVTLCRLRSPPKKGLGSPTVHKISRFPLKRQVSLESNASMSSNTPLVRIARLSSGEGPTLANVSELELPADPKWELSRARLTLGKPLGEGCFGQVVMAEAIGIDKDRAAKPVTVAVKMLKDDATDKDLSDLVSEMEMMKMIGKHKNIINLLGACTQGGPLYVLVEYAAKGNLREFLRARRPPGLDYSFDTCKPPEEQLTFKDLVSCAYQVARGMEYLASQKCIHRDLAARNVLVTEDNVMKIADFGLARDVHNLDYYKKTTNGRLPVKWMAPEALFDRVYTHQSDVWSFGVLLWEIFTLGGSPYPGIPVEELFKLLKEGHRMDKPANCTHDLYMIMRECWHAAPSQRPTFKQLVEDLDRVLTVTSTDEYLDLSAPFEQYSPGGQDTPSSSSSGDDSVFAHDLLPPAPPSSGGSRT
Sequence of Glycogen synthase kinase-3 beta (P49841 whole entry, looked up): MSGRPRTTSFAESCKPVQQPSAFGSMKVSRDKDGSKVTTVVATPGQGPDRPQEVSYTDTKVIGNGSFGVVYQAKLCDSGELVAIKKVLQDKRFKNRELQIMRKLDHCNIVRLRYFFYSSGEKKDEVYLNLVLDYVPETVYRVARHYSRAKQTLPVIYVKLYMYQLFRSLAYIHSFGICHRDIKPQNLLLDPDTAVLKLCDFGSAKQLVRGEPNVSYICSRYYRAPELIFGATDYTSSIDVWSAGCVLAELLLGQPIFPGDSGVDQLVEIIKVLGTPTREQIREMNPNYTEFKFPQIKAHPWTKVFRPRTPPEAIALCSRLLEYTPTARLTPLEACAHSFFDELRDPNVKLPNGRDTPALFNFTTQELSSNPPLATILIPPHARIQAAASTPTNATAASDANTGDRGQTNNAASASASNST
Sequence of Dual specificity protein kinase CLK3 (P49761 whole entry, looked up): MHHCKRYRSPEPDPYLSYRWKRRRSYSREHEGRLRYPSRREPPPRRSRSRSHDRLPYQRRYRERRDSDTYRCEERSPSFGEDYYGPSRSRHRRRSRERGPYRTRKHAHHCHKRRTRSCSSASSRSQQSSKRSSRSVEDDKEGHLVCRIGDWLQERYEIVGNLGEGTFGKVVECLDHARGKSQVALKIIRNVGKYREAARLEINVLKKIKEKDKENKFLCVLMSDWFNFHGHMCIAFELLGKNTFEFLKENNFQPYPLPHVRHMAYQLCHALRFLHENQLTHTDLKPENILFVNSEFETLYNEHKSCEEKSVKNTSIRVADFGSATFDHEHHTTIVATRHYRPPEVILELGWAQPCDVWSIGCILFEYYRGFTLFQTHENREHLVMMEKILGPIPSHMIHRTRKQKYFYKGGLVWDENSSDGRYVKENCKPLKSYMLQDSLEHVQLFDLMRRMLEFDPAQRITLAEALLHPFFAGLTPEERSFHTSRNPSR
Sequence of Serine/threonine-protein kinase B-raf (Homo sapiens), P15056 [V600E] (P15056 whole entry V600E): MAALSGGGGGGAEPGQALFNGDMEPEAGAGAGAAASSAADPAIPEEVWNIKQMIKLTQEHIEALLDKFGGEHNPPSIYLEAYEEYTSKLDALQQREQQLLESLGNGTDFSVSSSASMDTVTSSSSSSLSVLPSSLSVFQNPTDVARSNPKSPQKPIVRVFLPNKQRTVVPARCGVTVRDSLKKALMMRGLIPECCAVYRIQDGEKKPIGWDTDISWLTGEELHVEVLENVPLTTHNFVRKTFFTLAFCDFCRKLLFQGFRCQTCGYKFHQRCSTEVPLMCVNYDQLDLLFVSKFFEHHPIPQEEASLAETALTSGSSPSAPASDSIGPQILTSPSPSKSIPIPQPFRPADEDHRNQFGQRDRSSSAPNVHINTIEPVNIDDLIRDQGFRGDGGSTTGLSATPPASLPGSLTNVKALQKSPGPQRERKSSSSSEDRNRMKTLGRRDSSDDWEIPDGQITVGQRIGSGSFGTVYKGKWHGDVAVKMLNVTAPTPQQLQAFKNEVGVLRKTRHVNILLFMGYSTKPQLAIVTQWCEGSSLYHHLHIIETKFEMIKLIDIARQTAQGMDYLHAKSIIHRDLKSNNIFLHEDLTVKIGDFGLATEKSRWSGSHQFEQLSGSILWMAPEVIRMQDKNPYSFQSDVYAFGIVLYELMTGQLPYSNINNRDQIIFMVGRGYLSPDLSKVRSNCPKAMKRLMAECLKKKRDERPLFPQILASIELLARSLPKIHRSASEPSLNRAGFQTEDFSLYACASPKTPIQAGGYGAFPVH
Sequence of Receptor-interacting serine/threonine-protein kinase 2 (O43353 whole entry): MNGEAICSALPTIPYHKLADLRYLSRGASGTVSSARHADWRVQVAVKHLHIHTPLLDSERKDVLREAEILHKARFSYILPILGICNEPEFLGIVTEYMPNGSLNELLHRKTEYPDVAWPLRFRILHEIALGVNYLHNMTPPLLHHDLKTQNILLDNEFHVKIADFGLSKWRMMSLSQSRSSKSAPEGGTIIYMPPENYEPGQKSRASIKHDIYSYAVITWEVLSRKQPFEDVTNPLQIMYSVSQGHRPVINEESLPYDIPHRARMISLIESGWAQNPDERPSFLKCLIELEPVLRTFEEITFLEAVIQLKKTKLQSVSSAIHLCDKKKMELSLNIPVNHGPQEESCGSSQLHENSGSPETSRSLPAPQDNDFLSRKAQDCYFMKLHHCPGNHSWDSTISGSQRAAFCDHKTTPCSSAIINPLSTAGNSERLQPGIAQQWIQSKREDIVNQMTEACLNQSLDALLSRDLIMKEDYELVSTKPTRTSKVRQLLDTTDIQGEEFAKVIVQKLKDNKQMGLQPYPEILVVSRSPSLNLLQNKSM
Sequence of 5'-AMP-activated protein kinase catalytic subunit alpha-1 (Q13131 whole entry, looked up): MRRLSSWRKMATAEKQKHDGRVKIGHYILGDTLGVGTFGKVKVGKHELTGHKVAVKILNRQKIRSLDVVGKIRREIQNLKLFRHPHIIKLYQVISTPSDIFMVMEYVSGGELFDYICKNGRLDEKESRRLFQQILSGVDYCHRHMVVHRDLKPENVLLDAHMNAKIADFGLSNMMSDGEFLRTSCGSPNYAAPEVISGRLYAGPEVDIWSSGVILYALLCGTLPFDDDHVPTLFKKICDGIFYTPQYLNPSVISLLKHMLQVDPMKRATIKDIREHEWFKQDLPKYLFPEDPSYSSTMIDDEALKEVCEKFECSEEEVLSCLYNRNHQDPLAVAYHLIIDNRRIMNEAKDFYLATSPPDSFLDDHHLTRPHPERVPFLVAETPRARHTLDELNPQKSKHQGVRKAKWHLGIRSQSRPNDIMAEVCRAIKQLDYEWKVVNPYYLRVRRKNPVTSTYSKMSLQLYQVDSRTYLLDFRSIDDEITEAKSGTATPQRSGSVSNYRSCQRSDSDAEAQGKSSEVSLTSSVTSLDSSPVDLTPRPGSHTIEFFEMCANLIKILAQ
Sequence of Serine/threonine-protein kinase B-raf (Homo sapiens) (P15056 whole entry): as the sequence (P15056 whole entry V600E) above, with E600V counted along it

% of control [1]: 100%
% of control [2]: 100%
Compound: CCN(CC)CCCCNc1ncc2cc(-c3cc(OC)cc(OC)c3)c(NC(=O)NC(C)(C)C)nc2n1

Compound: Nc1cnc(N2CCc3cc(S(=O)(=O)Nc4c(F)cc(Cl)cc4F)cc(N4CCCC4=O)c32)nc1 [TP-020n]
% of control [3]: 100%

Compound: O[C@H]1CC[C@H](Nc2ncc3nc(Nc4c(F)cc(F)cc4F)n([C@H]4CCOC4)c3n2)CC1
% of control [4]: 86%

Compound: N#Cc1cccc(-c2c[nH]c3ncnc(N4CCOCC4)c23)c1
% of inhibition [5]: 7%
% of control [6]: 51%

Compound: Cc1cc([C@@H](C)Nc2ccccc2C(=O)O)c2nc(N3CCOCC3)cc(=O)n2c1 [AZD-6482]
% of control [7]: 83%

% of inhibition [8]: 1.6%
% of inhibition [9]: 16.8%
% of inhibition [10]: -16.4%
% of inhibition [11]: 5.9%
Compound: CC[C@@H]1[C@H](F)C(=O)N[C@@H]1COc1nccc2cc(C(N)=O)c(OC)cc12 [ZIMLOVISERTIB]

% of control ([12]; at 1 µM): 89%
% of control ([12]; at 5 µM): 75%
Compound: C=CC(=O)Nc1cccc(C(=O)Nc2ccc(Nc3cc(-c4[nH]c(SC)nc4C)ccn3)cc2)c1

Compound: COc1cc(Nc2nc(C)cc(-c3cnn4nc(OC)ccc34)n2)cc(C(F)(F)F)c1
% of control [13]: 100%
% of control [14]: 100%

IC50 [15]: > 10 µM
Compound: CCC(=O)N1CC[C@H](Nc2ncnc3c2CN(c2cnc(OC)c(C(F)(F)F)c2)CC3)C1 [LENIOLISIB]

Compound: CCC(=O)N1CCN(c2ccc(-n3c(=O)ccc4cnc5ccc(-c6cnc7ccccc7c6)cc5c43)cc2C(F)(F)F)CC1
% of control [16]: 87%

Compound: Cc1cc(F)c(C(=O)Nc2cccc(-c3nncn3C(C)C)n2)cc1-n1cnc(C2CC2)c1
% of control [17]: 90%

From ChEMBL document CHEMBL5465560, “Selectivity Literature for EUbOPEN Chemogenomic Library” (2024)
